Tests used:
KRas G12D mutant = assay: Ras GTP Binding Domain Inhibition Assay, KRas G12D mutant; conditions: at 20 μM; for KRas G12D mutant + SOS: % inh.: with SOS; for KRas G12D mutant: % inh.: without SOS
In short: (§1)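 Ni-plate-captured His-tagged GTPase (10-30 μg/mL, o/n 4° C); cpd 20 μM or serial dilution (IC50), 1% DMSO, 3 h RT; optional Sos 556-1049 His-tag (10-30 μg/mL) last hour. Cy3- or Cy5-GTP 100 nM, 45 min RT, 3× wash, fluorescence read.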

TNFα = assay: Mouse TNF Alpha Quantification Assay (LPS-stimulated RAW 264.7); assay type: cell-based; parameters: dose or concentration left out as unconfirmed; conditions: RAW264.7, ELISA, read-out: TNFα: % inh.
KRas G12C mutant = assay: Ras GTP Binding Domain Inhibition Assay, KRas G12C mutant; conditions: at 20 μM; for KRas G12C mutant + SOS: % inh.: with SOS; for KRas G12C mutant: % inh.: without SOS
In short: as §1

IL-6 = assay: Mouse IL6 Quantification Assay (LPS-stimulated RAW 264.7); assay type: cell-based; parameters: dose or concentration left out as unconfirmed; conditions: RAW264.7, ELISA, read-out: IL-6: % inh.
Smad2/3 phosphorylation = assay: Phospho-Smad2/3 Inhibition Assay in PANC-1; assay type: cell-based; conditions: Homo sapiens; 10 μM compound, 3 h; TGF-b1 stimulated PANC-1; western blot; read-out: % inh of Smad2/3 phosphorylation in PANC-1
Experimental: Cell lines: Human tumor-derived pancreatic cancer cell line Panc-1 and mouse muscle myoblast C2C12 were purchased from American Type Culture Collection and grown in complete DMEM-High Glucose, supplemented with penicillin (100 U/mL), streptomycin (100 μg/mL), and 10% heat-inactivated FBS at 37° C. in a humidified incubator with 5% CO2.
Method: Cells were plated at 350000 cells/well density in a 12-well plate, allowed 3 hours to adhere to the plate, then starved in the appropriate medium in the presence of 0.5% FBS overnight. The small molecules to be tested were added to the cells in the final concentration of 10 μM in the presence of 0.3% DMSO for 3 hours incubation at 37° C. For IC50 value determination, serial dilutions of compounds were added to cells under the same conditions. Next, Panc-1 cells were stimulated with 10 ng/ml TGF-b1 for 1 hour, and C2C12 cells were stimulated with 10 ng/ml TGF-b1 for 20 minutes (recombinant human TGF-b1, R&D Systems). After stimulation cells were lysed with lysis buffer containing 1% Triton X-100, EDTA, and Halt™ Protease & Phosphatase Inhibitor Cocktail (Thermo Scientific). Protein concentration was assessed by BCA protein assay (Thermo Scientific). Phosphorylation level of Smad2/Smad3 was determined by western blot.
Western blot protocol: Equal amounts of protein (15-50 μg) were separated by SDS-PAGE and transferred to nitrocellulose membranes (Invitrogen by Thermo Fisher Scientific). The membrane was stained with Ponceau S Stain (Boston BioProducts) to verify uniform protein loading. Membranes were blocked with 10% milk and phosphorylation levels of Smad2/Smad3 were assessed by incubating overnight at 4° C. with the following antibodies: Phospho-Smad2 (Ser465/467) and Phosph-Smad3 (Ser423/425), both from Cell Signaling Technology. Then the membranes were incubated with HRP-conjugated secondary antibody (Jackson Immunoresearch, West Grove, PA). Bands were incubated in Amersham ECL Prime Western Blotting Detection Reagent (GE Healthcare) and visualized using the ChemiDoc MP imaging system (Bio-Rad).

Rho-A = assay: Ras GTP Binding Domain Inhibition Assay, Rho-A; conditions: at 20 μM; without SOS
In short: as §1

KRas wild type = assay: Ras GTP Binding Domain Inhibition Assay, KRas wild type; conditions: at 20 μM; for KRas wild type + SOS: % inh.: with SOS; for KRas wild type: % inh.: without SOS
In short: as §1

Structure (SMILES)	KRas G12D mutant + SOS: % inh. (KRas G12D mutant; Table 7)	KRas G12D mutant + SOS: % inh. (KRas G12D mutant; Table 8)	KRas G12D mutant: % inh. (KRas G12D mutant; Table 7)	KRas G12D mutant: % inh. (KRas G12D mutant; Table 8)	inhibition (TNFα) [%]	KRas G12C mutant + SOS: % inh. (KRas G12C mutant)	KRas G12C mutant: % inh. (KRas G12C mutant)	inhibition (IL-6) [%]	inhibition at 10 µM (Smad2/3 phosphorylation) [%]	Rho-A: % inh. (Rho-A)	KRas wild type + SOS: % inh. (KRas wild type)	KRas wild type: % inh. (KRas wild type)
Cc1c(-c2ccn(C(C)C)n2)sc2nc(-c3nccn3C)nc(NCCN3CCOCC3)c12 [Compound 22, 6-(1-Isopropyl-1H-pyrazol-3-yl)-5-methyl-2-(1-methyl-1H-imidazol-2-yl)-N-(2-morpholinoethyl)thieno[2,3-d]pyrimidin-4-amine]	D (D = 76-100% inhibition)	D (D = 76-100% inhibition)	D (D = 76-100% inhibition)	D (D = 76-100% inhibition)	1 to 25	D (D = 76-100% inhibition)	D (D = 76-100% inhibition)	76 to 100	0	D (D = 76-100% inhibition)	D (D = 76-100% inhibition)	D (D = 76-100% inhibition)
COCCCOc1nc(-c2nccn2C)nc2sc(-c3ccn(C(C)C)n3)c(-c3ccccc3)c12 [Compound 37, 6-(1-Isopropyl-1H-pyrazol-3-yl)-4-(3-methoxypropoxy)-2-(1-methyl-1H-imidazol-2-yl)-5-phenylthieno[2,3-d]pyrimidine]	0 (0 = 0% inhibition)	0 (0 = 0% inhibition)	0 (0 = 0% inhibition)	0 (0 = 0% inhibition)	0	0 (0 = 0% inhibition)	0 (0 = 0% inhibition)	76 to 100	0	0 (0 = 0% inhibition)	A (A = 1-25% inhibition)	0 (0 = 0% inhibition)
COCCn1ccc(-c2sc3nc(-c4nccn4C)nc(NC[C@H]4CC[C@H]4COC)c3c2C)n1 (racemic) [Compound 38, rac-6-(1-(2-Methoxyethyl)-1H-pyrazol-3-yl)-N-(((1S,2R)-2-(methoxymethyl)cyclobutyl)methyl)-5-methyl-2-(1-methyl-1H-imidazol-2-yl)thieno[2,3-d]pyrimidin-4-amine]	D (D = 76-100% inhibition)	D (D = 76-100% inhibition)	B (B = 26-45% inhibition)	B (B = 26-45% inhibition)	76 to 100	D (D = 76-100% inhibition)	C (C = 46-75% inhibition)	76 to 100	46 to 75	B (B = 26-45% inhibition)	D (D = 76-100% inhibition)	C (C = 46-75% inhibition)
Cc1c(-c2ccn(C(C)C)n2)sc2nc(-c3nccn3C)nc(NCC3CN(C)CCO3)c12 (racemic) [Compound 25, rac-6-(1-Isopropyl-1H-pyrazol-3-yl)-5-methyl-2-(1-methyl-1H-imidazol-2-yl)-N-((4-methylmorpholin-2-yl)methyl)thieno[2,3-d]pyrimidin-4-amine]	D (D = 76-100% inhibition)	D (D = 76-100% inhibition)	D (D = 76-100% inhibition)	D (D = 76-100% inhibition)	46 to 75	D (D = 76-100% inhibition)	D (D = 76-100% inhibition)	76 to 100	0	D (D = 76-100% inhibition)	D (D = 76-100% inhibition)	D (D = 76-100% inhibition)
COc1cc(Cn2c(-c3nccn3C)nc3sc(-c4ccn(C(C)C)n4)c(C)c3c2=O)ncn1 [Compound 35, 6-(1-Isopropyl-1H-pyrazol-3-yl)-3-((6-methoxypyrimidin-4-yl)methyl)-5-methyl-2-(1-methyl-1H-imidazol-2-yl)thieno[2,3-d]pyrimidin-4(3H)-one]	0 (0 = 0% inhibition)	0 (0 = 0% inhibition)	A (A = 1-25% inhibition)	A (A = 1-25% inhibition)	1 to 25	A (A = 1-25% inhibition)	0 (0 = 0% inhibition)	1 to 25	0	0 (0 = 0% inhibition)	A (A = 1-25% inhibition)	A (A = 1-25% inhibition)
COCCCCn1c(-c2nccn2C)nc2sc(-c3ccn(C(C)C)n3)c(C)c2c1=O [Compound 33, 6-(1-Isopropyl-1H-pyrazol-3-yl)-3-(4-methoxybutyl)-5-methyl-2-(1-methyl-1H-imidazol-2-yl)thieno[2,3-d]pyrimidin-4(3H)-one]	0 (0 = 0% inhibition)	0 (0 = 0% inhibition)	0 (0 = 0% inhibition)	0 (0 = 0% inhibition)	0	A (A = 1-25% inhibition)	0 (0 = 0% inhibition)	46 to 75	0	0 (0 = 0% inhibition)	A (A = 1-25% inhibition)	0 (0 = 0% inhibition)
COCCCOc1nc(-c2nccn2C)nc2sc(-c3ccn(C(C)C)n3)c(C)c12 [Compound 32, 6-(1-Isopropyl-1H-pyrazol-3-yl)-4-(3-methoxypropoxy)-5-methyl-2-(1-methyl-1H-imidazol-2-yl)thieno[2,3-d]pyrimidine]	C (C = 46-75% inhibition)	C (C = 46-75% inhibition)	C (C = 46-75% inhibition)	C (C = 46-75% inhibition)	76 to 100	C (C = 46-75% inhibition)	C (C = 46-75% inhibition)	76 to 100	0	D (D = 76-100% inhibition)	D (D = 76-100% inhibition)	D (D = 76-100% inhibition)
COc1cccc(-c2sc3nc(-c4nccn4C)nc(N[C@@H]4CC[C@@H](OC)C4)c3c2-c2ccccc2)c1F (racemic) [Compound 41, 6-(2-Fluoro-3-methoxyphenyl)-N-((1R,3R)-3-methoxycyclopentyl)-2-(1-methyl-1H-imidazol-2-yl)-5-phenylthieno[2,3-d]pyrimidin-4-amine]	C (C = 46-75% inhibition)	C (C = 46-75% inhibition)	A (A = 1-25% inhibition)	A (A = 1-25% inhibition)	76 to 100	D (D = 76-100% inhibition)	B (B = 26-45% inhibition)	76 to 100	76 to 100	0 (0 = 0% inhibition)	D (D = 76-100% inhibition)	B (B = 26-45% inhibition)
COCCCn1c(-c2nccn2C)nc2sc(-c3ccn(C(C)C)n3)c(-c3ccccc3)c2c1=O [Compound 36, 6-(1-Isopropyl-1H-pyrazol-3-yl)-3-(3-methoxypropyl)-2-(1-methyl-1H-imidazol-2-yl)-5-phenylthieno[2,3-d]pyrimidin-4(3H)-one]	0 (0 = 0% inhibition)	0 (0 = 0% inhibition)	0 (0 = 0% inhibition)	0 (0 = 0% inhibition)	0	A (A = 1-25% inhibition)	0 (0 = 0% inhibition)	46 to 75	0	0 (0 = 0% inhibition)	A (A = 1-25% inhibition)	A (A = 1-25% inhibition)

Reference: patent US20240309015A1, “Methods for the Treatment of Fibrotic Disease” (SHY Therapeutics, LLC, priority 2021, published 2024)
